The record followed here is patent publication US11554124B2, “Hematopoiesis-enhancing agent” (priority 2018, dated 2023).

In series [1] the test system is human cord blood CD34+ cells. The series is described as follows: In vitro erythroid differentiation of human CD34+ umbilical cord blood cells. In kind it is cell-based. The conditions noted are these: CLEU 2.5 mg/ml, differentiation medium 7 days. As for the experimental part:
Human CD34^+ umbilical cord blood cells were obtained from the Kanto Koshinetsu Block Blood Center (Tokyo, Japan). The use of cord blood samples for research purposes was approved by the Tohoku University Ethics Committee. The technical details of this method have been described previously. Briefly, CD34^+ umbilical cord blood cells were cultured in growth medium for 5 days, and subsequently, the cells (1×10^5/ml) were cultured in differentiation medium for 7 days. For treatment with CLEU, the concentration thereof was 2.5 mg/ml. As the growth medium, StemMACS HSC Expansion Media XF, human (MACS), supplemented with StemMACS HSC Expansion Cocktail, human (MACS) was used. As the differentiation medium, StemSpan SFEM (STEMCELL) supplemented with hSCF (100 ng/ml; Peprotech), hFLT3-L (33.3 ng/ml; Peprotech), hIL3 (13.3 ng/ml; Peprotech), hBMP4 (13.3 ng/ml; Peprotech), hEPO (2.67 IU/ml; Kyowa Kirin Co., Ltd.), and hydrocortisone (1 μM; Sigma) was used.
Finally, the effect of CLEU on in vitro erythroid cell differentiation conditions of human cord blood CD34^+ cells was investigated.

A short description of series [2]: Complete blood count of peripheral blood of treated mice. In kind it is in vivo. The conditions noted are these: CLEU 50 mg/body i.p. As for the experimental part: (§1) Wild-type mice with a genetic background of C57BL/6J were purchased from Charles River Laboratories, Inc. Mice at 8 to 14 weeks of age were used for analysis. For CLEU treatment (50 mg/body), a solution of cycloleucine (CLEU) was prepared by diluting cycloleucine (CLEU) (Sigma) in PBS (50 mg/ml), and 1 ml of the CLEU solution was administered intraperitoneally. For AKBA treatment (2 mg/body), 2 mg AKBA (Enzo Life Sciences)/20% DMSO/1 mL PBS solution was administered intraperitoneally. Vehicle without AKBA was used as a control. For measuring complete blood count of peripheral blood, peripheral blood was collected from facial veins and counted by use of an automated animal blood cell counter (microsemi LC-662). All of the experiments conducted in this study were approved by the Animal Experiment Committee of the Environmental Safety Committee of Tohoku University.

In series [3] the test system is trimethylation of lysine 9 of histone H3 (H3K9me3). Kind of series: Western blot of H3K9me3 in bone marrow erythroblast subset II. In kind it is in vivo, mouse. The conditions noted are these: CLEU, BM erythroblast subset II, Day 2, vs PBS. The source says:
FIG. 4 is the experimental result showing that epigenetic demethylation induces the final maturation of erythroblasts. Panel A: WGBS (whole genome bisulfite sequencing) results of bone marrow erythroblast subset II harvested from CLEU or PBS treated mouse (Day 2) (CLEU; n=2, PBS; n=2). Panel B: Difference in expression levels versus difference in CpG methylation of the promoter for all expressed genes (at least one of FPKM>10 and CV<0.5). The correlation (Cor) was −0.08. […] The correlation (Cor) was −0.11. Panel D: Images (photographs) showing western blot (WB) results of trimethylation of lysine 9 of histone H3 (H3K9me3) on bone marrow erythroblast subset II harvested from CLEU or PBS treated mouse (Day 2). Panels E-G: In vitro red blood cell differentiation of Human CD34^+ cord blood cells. Panel E: Representative results of flow cytometric analysis. Panel F: Cumulative results for the indicated cell population. Panel G: Cumulative results for CD34 EMI (CD34 red blood cell maturation index: CD71^+ GlyA^+/CD71^+ GlyA^−). Each point shown in the box plots represents each technical replicate. Asterisk indicates P<0.001.
The overall transcriptional changes observed as above could be attributed to epigenetic modification changes due to the reduced abundance of intracellular SAM (Panel A of FIG. 2). […]
A general note: A western blot detects proteins with antibodies after separation by electrophoresis.

Series [4] has as its system SAM present in erythroblasts. Kind of series: Abundance of SAM in bone marrow erythroblasts of treated mice (mass spectrometry). In kind it is in vivo, mouse. The following applies: CLEU 50 mg/body i.p., bone marrow subset II, Day 2, vs PBS. As for the experimental part:
as §1, with “University. BM cells and spleen cells were harvested in a conventional manner. Cells were stained with combinations of antibodies specific to erythroblasts and mature cells, to thereby identify them. The cells were visualized with antibody and streptavidin-peridinin chlorophyll protein-cyanin 5.5. […] Flow cytometric analysis and cell sorting were performed according to the manufacturer's protocol using FACS AriaII (BD), and then the obtained data were analyzed using FlowJo software (TreeStar). […]” for “University.”

On to `NC1(C(=O)O)CCCC1` [CLEU, cycloleucine], for which, in series [1], the “erythroid differentiation and maturation of human cord blood CD34+ cells” value was “induce not only erythroid differentiation but also maturation”. In addition, in series [2] (Days 1-6, vs PBS), the hematocrit entry is reported as “marked increase”, the platelet counts entry is “no particularly consistent differences”, the red blood cells result is on record as “marked increase” and the “white blood cell counts” value is recorded as “no particularly consistent differences”. The hemoglobin levels entry in series [2] (peripheral blood, vs PBS) is listed as “marked increase”. Besides, the “trimethylation of H3K9” value in series [3] was “decreased”. Also, the “abundance of SAM present in erythroblasts” value in series [4] was “reduce the abundance of SAM”.
